≈ marks a conversion by molar mass, not a printed value.
Key:
Solubility in DMF = settings: solvent DMF
physchem = settings: organic solvent or mixture
[1] = Solubility of the isolated salt in NMP / DMPU; assay type: physicochemical
Method: 6-Bromo-4,4-dimethyl-benzoxazine-2-one (2.59 g) was dissolved in THF (50 mL) at ambient temperature followed by addition of sodium tert-butoxide (0.96 g). The mixture was gently heated until a solution was obtained.
Similarly, 6-bromo-4,4-dimethyl-benzoxazine-2-one (2.55 g) was reacted with lithium tert-butoxide (10 mL of 1M solution in THF).

For “5′-(5-cyano-1-methyl-1H-pyrrol-2-yl)spiro[cyclohexane-1,3′-[3H]indol]-2′-ylidenecyanamide choline salt”, the “solubility in DMF” value (Solubility in DMF) was 11 mg/mL.

Compound Cn1c(C#N)ccc1-c1ccc2c(c1)C1(CCCCC1)C(=NC#N)N2 [5′-(5-Cyano-1-methyl-1H-pyrrol-2-yl)spiro[cyclohexane-1,3′-[3H]indol]-2′-ylidenecyanamide] has a solubility (physchem) of 3 mg/mL (≈ 9.11 mM).

With CC1(C)OC(=O)Nc2ccc(Br)cc21.[Li] [6-Bromo-4,4-Dimethyl-Benzoxazine-2-One Lithium Salt] the “solubility in dimethylpyrimidone (DMPU)” value ([1]; without heating) was “soluble”.

For CC1(C)OC(=O)Nc2ccc(Br)cc21.[Na] [6-Bromo-4,4-Dimethyl-Benzoxazine-2-One Sodium Salt], the “solubility in N-methylpyrrolidone (NMP) and dimethylpyrimidone (DMPU)” value ([1]; solvents heated to about 40 to about 50° C.) was “soluble”.
